According to paper PMC10796436, “Peptidyl nitroalkene inhibitors of main protease rationalized by computational and crystallographic investigations as antivirals against SARS-CoV-2” (Communications Chemistry, 2024):
Several values for one entry are separate records, joined by “and”; a condition that tells them apart may be missing. Equal entries are not always repeated. Where two headings read alike, the source gives them in different places.

Key:
M^pro [1] = target: T1, M^pro (Severe acute respiratory syndrome coronavirus 2, UniProt P0DTD1); format: biochemical; settings: for Fluorescence reading (progress curve): triplicate wells
Procedure: Buffer: 20 mM Tris, 0.1 mM EDTA, 1 mM DTT, 200 mM NaCl pH = 7.5. For the dilution assay Nirmatrelvir[21] was used as a reversible control and LM188[54] as an irreversible control (Fig. 10).
The incubation was done at RT for 30 min in assay buffer. DMSO was used as a control. After incubation the Enzyme/Inhibitor (or DMSO) mixtures were diluted 100-fold in assay buffer.
The preincubation was done in assay buffer (20 mM Tris, 0.1 mM EDTA, 1 mM DTT, 200 mM NaCl, pH = 7.5), at RT for 30 min. After incubation the mixtures were diluted […]
proteolytic activity of the enzyme was measured as described for the enzymatic assays using the […]
activity was measured over 1 h.
Inhibition assay58. Trypsin: Enzyme: bovine trypsin purchased from Sigma-Aldrich (St. Louis, […]
Substrate: Cbz-FR-AMC purchased from Bachem (Bubendorf, Switzerland), [Substrate]: 40 µM […]
The activity against bovine trypsin was tested at 20 µM inhibitor concentration. […]

bovine trypsin = target: T2, bovine trypsin (Bos taurus, UniProt P00760); format: biochemical; settings: 20 μM
T2 construct: purchased Sigma-Aldrich
T2 sequence (P00760 24-246): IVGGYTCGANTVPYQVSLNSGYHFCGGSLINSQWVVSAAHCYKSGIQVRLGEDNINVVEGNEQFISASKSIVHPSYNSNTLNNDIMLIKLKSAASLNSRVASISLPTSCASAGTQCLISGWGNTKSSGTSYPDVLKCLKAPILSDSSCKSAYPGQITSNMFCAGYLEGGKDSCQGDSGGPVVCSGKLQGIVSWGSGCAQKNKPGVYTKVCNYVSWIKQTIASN

[2] = Stability in TRIS buffer pH 7.5 by LCMS (warhead hydration); format: physicochemical
Procedure: (50 mM, pH 7.5), stored at ca. 30 °C and repeatedly analyzed by LCMS (stability in buffer). […]
Analysis was performed using Mestrenova. LCMS setup: Agilent 1100 series HPLC system coupled to an Agilent 1100 series LC/MSD Trap with electron spray ionization (ESI) , Agilent Poroshell 120 EC-C18, 150x2.10 mm, 4 μm column. A linear gradient was used for elution with a ternary pump using [water/ACN/water + 0.1% formic acid] that changes ratios from 80/10/10 to 0/90/10 over the course of 10 min (0.7 mL/min). Areas of peaks in the chromatogram (detection-λ = 326 nm) were used to calculate the change in concentrations. Retention time and mass spectrum recorded in positive ionization mode were used to assign species.
In preparation of experiments with longer incubation periods (metabolic stability, permeability etc.), first general stability in aqueous systems is to be assessed. For this, a TRIS/HCl buffer system at physiological pH was chosen.
In all measurements, only two relevant “species” of FGA146 are identifiable by mass spectrometry: m/z[M+H2O+H]+ = 504 with tR = 4.8 min and m/z[M+H]+ = 486 with tR = 5.1 min.
For quantification by UV AUC, 326 nm is used as detection wavelength. Wavelengths ≤255 nm are unsuitable since extinction coefficients of free and hydrated warhead seem to vastly differ.
Table 10. […] For exemplary depiction of chromatograms that were used to generate this table, compare Figure SX below. […]
tR = 4.8 min tR = 5.1 min m/z[M+H2O+H]+ = 504 m/z[M+H]+ = 486

M^pro [3] = target: T1, M^pro; assay: Binding to M^pro by ultracentrifugation (sedimentation method)

COc1cccc2[nH]c(C(=O)N[C@@H](CC(C)C)C(=O)N[C@H](/C=C/[N+](=O)[O-])C[C@@H]3CCNC3=O)cc12 [FGA146]
Fluorescence reading (progress curve) (M^pro [1]; Time 180.071 s): 702 and 681 and 686
Fluorescence reading (progress curve) (M^pro [1]; Time 210.081 s): 743 and 723 and 735
Fluorescence reading (progress curve) (M^pro [1]; Time 240.095 s): 788 and 769 and 779
Fluorescence reading (progress curve) (M^pro [1]; Time 270.113 s): 832 and 815 and 822
Fluorescence reading (progress curve) (M^pro [1]; Time 300.118 s): 871 and 859 and 876
Fluorescence reading (progress curve) (M^pro [1]; Time 330.126 s): 913 and 895 and 906
Fluorescence reading (progress curve) (M^pro [1]; Time 360.134 s): 943 and 930 and 957
Fluorescence reading (progress curve) (M^pro [1]; Time 390.141 s): 989 and 974 and 988
Fluorescence reading (progress curve) (M^pro [1]; Time 420.149 s): 1026 and 1011 and 1031
Fluorescence reading (progress curve) (M^pro [1]; Time 450.157 s): 1063 and 1040
Fluorescence reading (progress curve) (M^pro [1]; Time 2881.2 s): 2210 and 2162 and 2202
Fluorescence reading (progress curve) (M^pro [1]; Time 2911.21 s): 2205 and 2168 and 2199
Fluorescence reading (progress curve) (M^pro [1]; Time 2941.22 s): 2214 and 2173 and 2206
Fluorescence reading (progress curve) (M^pro [1]; Time 2971.24 s): 2207 and 2185 and 2213
Fluorescence reading (progress curve) (M^pro [1]; Time 3001.25 s): 2222 and 2185 and 2232
Fluorescence reading (progress curve) (M^pro [1]; Time 3031.26 s): 2246 and 2178 and 2225
Fluorescence reading (progress curve) (M^pro [1]; Time 3061.27 s): 2233 and 2191 and 2237
Fluorescence reading (progress curve) (M^pro [1]; Time 3091.28 s): 2243 and 2199 and 2235
Fluorescence reading (progress curve) (M^pro [1]; Time 3121.29 s): 2244 and 2187 and 2224
Fluorescence reading (progress curve) (M^pro [1]; Time 3151.3 s): 2247 and 2204 and 2241
Fluorescence reading (progress curve) (M^pro [1]; Time 3181.31 s): 2224 and 2196 and 2245
Fluorescence reading (progress curve) (M^pro [1]; Time 3211.32 s): 2250 and 2188 and 2275
Fluorescence reading (progress curve) (M^pro [1]; Time 3241.33 s): 2234 and 2200
Fluorescence reading (progress curve) (M^pro [1]; Time 3271.34 s): 2236 and 2195 and 2245
Fluorescence reading (progress curve) (M^pro [1]; Time 3301.35 s): 2233 and 2201 and 2238
Fluorescence reading (progress curve) (M^pro [1]; Time 3331.36 s): 2246 and 2198 and 2261
Fluorescence reading (progress curve) (M^pro [1]; Time 3361.37 s): 2261 and 2203 and 2250
Fluorescence reading (progress curve) (M^pro [1]; Time 3391.39 s): 2251 and 2199 and 2248
Fluorescence reading (progress curve) (M^pro [1]; Time 3421.39 s): 2261 and 2206 and 2226
Fluorescence reading (progress curve) (M^pro [1]; Time 3451.41 s): 2253 and 2215 and 2257
Fluorescence reading (progress curve) (M^pro [1]; Time 3481.42 s): 2274 and 2215 and 2263
Fluorescence reading (progress curve) (M^pro [1]; Time 3511.43 s): 2266 and 2207 and 2242
Fluorescence reading (progress curve) (M^pro [1]; Time 3541.44 s): 2263 and 2215 and 2260
Fluorescence reading (progress curve) (M^pro [1]; Time 3571.45 s): 2254 and 2212 and 2248
recovery of M^pro activity after 100-fold dilution (M^pro [1]; preincubation 30 min): seems to recover over time
relative activity compared to the DMSO control (bovine trypsin): 112.5±16.9%
equilibrium hydrated to free warhead ([2]; TRIS buffer pH 7.5, ca. 30 °C): 85/15
time to 50% conversion to hydrated warhead ([2]; TRIS buffer pH 7.5, ca. 30 °C): 1 h
time until hydration equilibrium is reached ([2]; TRIS buffer pH 7.5, ca. 30 °C): 4 h
AUCpeak1/AUCTotal (hydrated, m/z 504) ([2]; t 0 h): 10%
AUCpeak2/AUCTotal (intact, m/z 486) ([2]; t 0 h): 90%
AUCpeak1/AUCTotal (hydrated, m/z 504) ([2]; t 0.25 h): 20%
AUCpeak2/AUCTotal (intact, m/z 486) ([2]; t 0.25 h): 80%
AUCpeak1/AUCTotal (hydrated, m/z 504) ([2]; t 0.5 h): 34%
AUCpeak2/AUCTotal (intact, m/z 486) ([2]; t 0.5 h): 66%
AUCpeak1/AUCTotal (hydrated, m/z 504) ([2]; t 1 h): 47% and 53%
AUCpeak2/AUCTotal (intact, m/z 486) ([2]; t 1 h): 47% and 53%
AUCpeak1/AUCTotal (hydrated, m/z 504) ([2]; t 3 h): 78%
AUCpeak2/AUCTotal (intact, m/z 486) ([2]; t 3 h): 22%
AUCpeak1/AUCTotal (hydrated, m/z 504) ([2]; t 4 h): 83%
AUCpeak2/AUCTotal (intact, m/z 486) ([2]; t 4 h): 17%
AUCpeak1/AUCTotal (hydrated, m/z 504) ([2]; t 5 h): 85%
AUCpeak2/AUCTotal (intact, m/z 486) ([2]; t 5 h): 15%
AUCpeak1/AUCTotal (hydrated, m/z 504) ([2]; t 7 h): 85%
AUCpeak2/AUCTotal (intact, m/z 486) ([2]; t 7 h): 14%
AUCpeak1/AUCTotal (hydrated, m/z 504) ([2]; t 30 h): 83%
AUCpeak2/AUCTotal (intact, m/z 486) ([2]; t 30 h): 14%
AUCpeak1/AUCTotal (hydrated, m/z 504) ([2]; t 31 h): 83%
AUCpeak2/AUCTotal (intact, m/z 486) ([2]; t 31 h): 14%
conversion to hydrated warhead ([2]; time to LCMS (<10 min)): 10%
Fraction bound, Absorption (M^pro [3]; ligand concentration 0.1): 0.00706
Fraction bound, Fluorescence (M^pro [3]; ligand concentration 0.1): 0.00606
Fraction bound, Absorption (M^pro [3]; ligand concentration 0.5): 0.0199
Fraction bound, Fluorescence (M^pro [3]; ligand concentration 0.5): 0.0299
Fraction bound, Absorption (M^pro [3]; ligand concentration 1): 0.07275
Fraction bound, Fluorescence (M^pro [3]; ligand concentration 1): 0.06275
Fraction bound, Absorption (M^pro [3]; ligand concentration 5): 0.3362
Fraction bound, Fluorescence (M^pro [3]; ligand concentration 5): 0.3162
Fraction bound, Absorption (M^pro [3]; ligand concentration 10): 0.6468
Fraction bound, Fluorescence (M^pro [3]; ligand concentration 10): 0.623
Fraction bound, Absorption (M^pro [3]; ligand concentration 25): 0.9146
Fraction bound, Fluorescence (M^pro [3]; ligand concentration 25): 0.8218
Fraction bound, Absorption (M^pro [3]; ligand concentration 50): 0.9678
Fraction bound, Fluorescence (M^pro [3]; ligand concentration 50): 0.9995
Fraction bound, Absorption (M^pro [3]; ligand concentration 100): 1.004
Fraction bound, Fluorescence (M^pro [3]; ligand concentration 100): 0.9916
Kd (M^pro [3]; ultracentrifugation, 25 °C): 7.28 ± 0.58 µM
